Laboratory results taken from patent publication US12686703B2, “Cosmetic tetrapeptide, composition and use” (Sederma, priority 2020, dated 2026).
Marks after values point to notes of the source that are not given here. Where a SMILES comes first, the peptide text is derived from it. The star is where a group is joined. Palmitoyl = CCCCCCCCCCCCCCCC(=O)*

Experiments:
Assay type in all cases: cell-based
Collagen I (PIP) = test: ELISA assay of collagen I synthesis (PIP assay) in normal human fibroblasts; conditions: concentrations of 5 to 15 ppm; NHF, 72 h contact; vs excipient; p < 0.01
Method: Normal human fibroblasts (NHF) in culture are brought into contact with the products to be tested or their excipient (negative control) for 72 h. At the end of the contact, the culture supernatants are removed, and the syntheses of the dermal macromolecules are estimated by ELISA assays. An estimate of cell viability is carried out by Hoechst assay to weight the obtained data.
Collagen I is evaluated via the PIP assay (carboxy-terminal propeptide of procollagen type I) which is a peptide fragment resulting from the enzymatic degradation of procollagen when the latter is excreted outside the fibroblast (therefore in the culture medium where the assay is carried out).

Fibrillin 1 = test: Immunofluorescence assay of Fibrillin 1 formation in normal human fibroblasts; conditions: 8 ppm; NHF, five-day incubation; p < 0.05
Method: Normal human fibroblasts (NHF) are cultured for at least 24 hours in fibroblast growth medium containing serum. Once confluence was reached, the cells are seeded, and the actives and corresponding controls diluted in a culture medium are added. At the end of a five-day incubation period, the supernatant is removed, the cells are washed with PBS and fixed. The cells are then incubated with the primary Fibrillin 1 monoclonal antibody (11C1.3) (Thermo Fisher) diluted in blocking buffer at a concentration of 1:200. The cells are incubated. The primary antibody is removed, and the cells are washed with PBS. The secondary antibody was added at a dilution of 1:1000 in blocking buffer, then removed and the cells are washed with PBS. The formation of Fibrillin 1 by the cells is visualized using a fluorescence microscope. The obtained images are analyzed using an image processing software assigning a numerical value to the coverage density.

[1] = system: Hair Follicle Dermal Papilla Cells (HFDPC); test: Proliferation study (EdU) on hair follicle dermal papilla cells; conditions: p < 0.01
Method: (§1) 2.1—Proliferation Studies on Cell Cultures (Hair Follicle Dermal Papilla Cells (HFDPC) and Outer Root Sheath Keratinocytes (ORSK))
(§2) The cells are seeded in adapted culture media and incubated for 24 h. Then the culture media are removed and changed for test media and cells are incubated. The cells are thereafter contacted with the peptide (diluted at different concentrations in DMSO) and with EdU (Ethynyldeoxyuridine), a thymidine-analogue nucleoside which is incorporate into the newly synthetized in proliferating cells. The cultures are stopped, and cells are labelled using a Edu detection kit.

[2] = system: Outer Root Sheath Keratinocytes (ORSK); test: Proliferation study (EdU) on outer root sheath keratinocytes; conditions: 5 ppm, p < 0.01
Method: as §1, §2

[3] = system: whole hair follicles isolated from scalp explants; test: Hair growth from hair follicle bulbs (isolated follicles in culture)
Method: Whole follicles (including the infundibulum, upper sheath, bulge, lower sheath, and bulb) are isolated by microdissection from scalp explants issued from surgery. On first day (DO), the hairs are placed individually in wells and keep alive at 37° C. in a humid atmosphere, enriched with 5% CO2, in an adapted culture medium.
Peptide solutions at 10 ppm and 5 ppm are prepared in the culture medium with 0.1% DMSO.
On D0, D3, D5 and D7, the peptide products are incorporated into the culture medium. The culture media are completely renewed for each treatment. The control cases receive no treatment other than renewal of the culture medium.
On day D0, the hairs are removed and stored frozen at −80° C. On D10, the hairs from each case are taken and treated in the same way.
A photograph of the isolated hairs is taken on DO to measure the hair from the bulb to the end of the hair shaft using an image analysis software. The photographs and length measurements are repeated on D3, D5, D7 and D10. The growth of each hair is monitored individually.
During the study, the hairs grow. To estimate the effect of the peptide, the average hair length between the peptide and the solvent control are compared, for each time (see below Table 5).

## CCCCCCCCCCCCCCCC(=O)N[C@@H](CC(C)C)C(=O)N[C@@H](CC(C)C)C(=O)N[C@@H](C)C(=O)N[C@@H](CC(N)=O)C(=O)O [Pal-LLAN-OH, palmitoyl-leucyl-leucyl-alanyl-asparagine] (Palmitoyl-LLAN-OH)
Collagen I (PIP)
  Collagen I (PIP): +60%
Fibrillin 1
  Fibrillin 1: +108% (p < 0.05)
[1]; 5 ppm
  Cell proliferation variation % vs. control solvent (DMSO): +13.7%
[1]; 10 ppm
  Cell proliferation variation % vs. control solvent (DMSO): +22.15%
[2]
  Cell proliferation variation % vs. control solvent (DMSO): +55%
[3]; 5 ppm, D3, nsd
  Growth variation compared to solvent control (0.1% DMSO): +21% (nsd)
[3]; 5 ppm, D5, p < 0.05
  Growth variation compared to solvent control (0.1% DMSO): +26%*
[3]; 5 ppm, D7, p < 0.01
  Growth variation compared to solvent control (0.1% DMSO): +32%**
[3]; 5 ppm, D10, p < 0.01
  Growth variation compared to solvent control (0.1% DMSO): +30%**
[3]; 10 ppm, D3, nsd
  Growth variation compared to solvent control (0.1% DMSO): +16% (nsd)
[3]; 10 ppm, D5, p < 0.05
  Growth variation compared to solvent control (0.1% DMSO): +28%*
[3]; 10 ppm, D7, p < 0.01
  Growth variation compared to solvent control (0.1% DMSO): +37%**
[3]; 10 ppm, D10, p < 0.01
  Growth variation compared to solvent control (0.1% DMSO): +38%**
